Results published in patent publication US20070190651A1, “Myogenic Development and Protection of Stem Cells Against Inflammation and Apoptosis By Statins and Isoprenoid Pathway Inhibitors” (Board of Regents of the University of Texas System, priority 2006, published 2007).
Entries after “also recorded” stand apart in the source; their conditions may differ. Residues, ends and D or L forms follow the SMILES beside them. *: point of attachment. Cbz = O=C(OCc1ccccc1)*

Columns and labels:
[1] = animals; cited from earlier work
[2] = system: mouse peritoneal macrophages; assay: TUNEL staining of acLDL-loaded mouse peritoneal macrophages; format: cell-based; settings: for number of TUNEL positive cells: acLDL-preloaded macrophages, agent alone, over incubation time
Method: FIG. 15 is a graph showing TUNEL staining of mouse peritoneal macrophages. Macrophages loaded with acLDL were treated with CP-113,818 (▪), CP-113,818 plus U18666A (♦), or U18666A in medium containing 0.2% BSA (□). After treatment the cells were fixed and nuclear DNA fragments were labeled using a fluorescent TUNEL assay.
It was tested whether cholesterol accumulation can induce apoptosis in cells treated with the acyl coenzyme-A:cholesterol acyltransferase (ACAT) inhibitor CP-113,818. In situ labeling of DNA fragments were analyzed in murine macrophages treated with the inhibitors using the TUNEL technique. […] Few TUNEL positive cells were detected in untreated control and in cultures treated with CP-113,818 plus U18666A for 24 h. Thus, inhibition of cholesterol transport with U18666A blocked the apoptotic effect of the ACAT inhibitor.

[3] = system: iNOS; assay: Nitrite production (Griess reaction) in H9c2 cardiac myoblasts; format: cell-based, rat; settings: for effect on nitrite production in cells treated with simvastatin plus IL-1α: added to simvastatin + IL-1α 20 ng/mL
Method: Cell cultures. H9c2 cells purchased from American Type Culture Collection (ATCC, Rockville, Md.) are spontaneously immortalized ventricular myoblasts from the rat embryo, with preservation of several electrical and biochemical characteristics found in adult cardiomyocytes. […] After certain time intervals, 100 μL/well culture media were collected for determination of nitrite production. Assay for NO Production. The activity of iNOS was determined in the culture medium by assaying nitrites, taken as an index of NO production, using the Griess reagent (1% sulphanilic acid and 0.1% N-[1-naphtyl] ethylenediamine-HCl in 5% phosphoric acid) as reported previously (4,18,19). Equal volumes of medium and Griess reagent were mixed, and the purple products quantified spectrophotometrically at 550 nm. Nitrite concentrations were determined from a linear standard curve constructed with known concentrations of sodium nitrite (0 to 40 μmol/L nitrite). Nitrite Assays. Nitrite, a stable end-product of nitric oxide, was measured by using Griess reagent (1% sulphanilic acid and 0.1% N-[1-naphtyl] ethylenediamine-HCl in 5% phosphoric acid). Equal volumes of medium and Griess reagent were mixed, and the resulting purple product quantified by spectrophotometric assay at 550 nm. Nitrite concentrations were calculated from a linear standard curve constructed with known concentrations of sodium nitrite (0-14 μmol/L nitrite) (19).

[4] = system: iNOS; assay: Immunoblotting for iNOS protein in cytokine-stimulated H9c2 cardiac myoblasts; format: cell-based, rat; settings: for effect on simvastatin inhibition of cytokine-induced iNOS protein expression: added to simvastatin + IL-1α or TNF-α
Method: Cell cultures. H9c2 cells purchased from American Type Culture Collection (ATCC, Rockville, Md.) are spontaneously immortalized ventricular myoblasts from the rat embryo, with preservation of several electrical and biochemical characteristics found in adult cardiomyocytes. They were cultured in DMEM medium (ATCC) supplemented with 10% heat-inactivated fetal bovine serum (FBS) in 95% air and 5% CO2 at 37° C. […] After certain time intervals, 100 μL/well culture media were collected for determination of nitrite production.
Immunoblotting. Total proteins were isolated from rat cardiac myoblasts (H9c2 cells) or embryonic stem cells in an ice-cold lysis buffer containing 10 mmol/L Tris (tris(hydroxymethyl)aminomethane) (pH 7.4), 1% sodium dodecyl sulfate (SDS) and 1× protease inhibitor (1 mmol/L sodium orthovanadate). Proteins (15 μg/lane) were separated under the reducing conditions (125 mM Tris pH 6.8, 4% SDS, 10% glycerol, 0.006% bromophenol blue, 2% β-mercaptoethanol) by electrophoresis onto 5-10% SDS-polyacrylamide gel and electro-blotted to nitrocellulose membranes (Osmonics, Westborough, Mass.). The membranes were reversibly stained with Ponceau red (Sigma) to verify equal protein loading and/or transfer. After blocking in Tris-buffered saline (0.2 M Tris and 8% NaCl) containing 5% non-fat powdered milk and 0.1% Tween 20 for 1 hour at room temperature, the membranes were incubated overnight at 4° C. with following primary antibodies to (a) iNOS (Transduction Laboratories, Lexington, Ky.; BD Biosciences); (b) NF-κB p65/rel (Santa Cruz Biotechnologies, Santa Cruz, Calif.); (c) ser^32-phosphorylated inhibitor IκBα (Santa Cruz); (d) Bad (BD Biosciences, San Jose, Calif.); (e) Bcl-xL (BD Biosciences); (f) proliferating cell nuclear antigen (PCNA; BC Biosciences); (g) ryanodine receptor (Santa Cruze Biotechnology, Inc., Santa Cruz, Calif.); (h) α-sarcomeric actinin (Sigma); (i) myocardin A (developed by immunizing rabbits with a synthetic myocardin A peptide); (j) Tie-2 (Santa Cruz); (k) manganese superoxide dismutase (Santa Cruz); and (1) β-tubulin (Sigma). The blots were incubated with horseradish peroxidase-coupled secondary antibodies, washed and developed by using a SuperSignal West Pico Chemiluminescent Substrate Kit (Pierce, Rockford, Ill.). Intensity of each immunoreactive protein band was quantified by densitometric analysis. Cytokine-stimulated RAW 264.7 cells (Transduction Laboratories, Lexington, Ky.) were used as positive controls.

[5] = system: hESC-derived EB; assay: hESC embryoid body formation with proteasomal inhibitor; format: cell-based, human; settings: MG132 at 100 nm in hanging drops, then regular culture 1-2 days
Method: FIG. 13 is a pair of photomicrographs showing hESC-derived EB after treatment with MG132 for 2 days. a, untreated and b, treated.
To determine whether protein ubiquitination has any impact on EB formation, hESCs were cultured in hanging-drops with the proteasomal inhibitor MG132 at 100 nm, and then plated in regular culture for 1-2 days.

[6] = system: NF-κB p65/RelA; assay: Immunoblotting for p65/RelA subunit of NF-κB, total cellular or nuclear proteins of H9c2 cells; format: cell-based, rat; settings: Y-27632 10^−4 mol/L
[7] = system: Rho kinase; settings: cited from earlier work
[8] = system: β-adrenergic receptors; assay: Edge-motion detection of mESC-derived contractile myogenic cells; format: cell-based, murine
Method: FIG. 11 is a series of graphs showing edge-motion detection of mESC-derived contractile myogenic cells untreated (upper) or treated with isoproterenol (10 ng/ml) in the absence (middle) or presence (lower) of propanolol (25 ng/ml).
hESC grown in DMEM media with 10% fetal bovin serum and a group of growth factors were induced to differentiate in a hang-drop 3D cell culture system. hESCs from two (H1 or H9) lines were cultured with a mouse fetal fibroblast feeder layer. After forming EBs in the hanging-drop 3D system they were replated in 12-well plates. […] Surrounding the beating colonies, the cells developed a blood vessel-like structure (FIG. 10). Using the edge-motion detection technique, a single beating myogenic cell within the developing EBs was recorded. This provides a functional marker showing the differentiational potential in cardiomyogenesis.

[9] = system: IκBα; assay: Immunoblotting for ser32 phosphorylated IκBα in H9c2 cells; format: cell-based, rat; settings: 24 h
Method: Immunoreactive bands were quantified by densitometry (Panel B).
Immunoblotting. Total proteins were isolated from rat cardiac myoblasts (H9c2 cells) or embryonic stem cells in an ice-cold lysis buffer containing 10 mmol/L Tris (tris(hydroxymethyl)aminomethane) (pH 7.4), 1% sodium dodecyl sulfate (SDS) and 1× protease inhibitor (1 mmol/L sodium orthovanadate). Proteins (15 μg/lane) were separated under the reducing conditions (125 mM Tris pH 6.8, 4% SDS, 10% glycerol, 0.006% bromophenol blue, 2% β-mercaptoethanol) by electrophoresis onto 5-10% SDS-polyacrylamide gel and electro-blotted to nitrocellulose membranes (Osmonics, Westborough, Mass.). The membranes were reversibly stained with Ponceau red (Sigma) to verify equal protein loading and/or transfer. […] Intensity of each immunoreactive protein band was quantified by densitometric analysis. […]

[10] = system: murine embryonic stem cells; format: cell-based; settings: day 12
Method: At day 12, the number of contracting EB outgrowths (Panel A) and extension of beating area (Panel B) were detrmined by morphometry. The results were plotted as percentages of the total EBs counted in each well and shown as the mean ±SD for each of the 3 separate experiments. *, P<0.05 vs untreated control; #, P<0.05 vs simvastatin-treated control.
The murine ESC (mESC) line CCE was obtained from American Type Culture Collection (ATCC, Rockville, Md.). Murine ESCs were cultured without feeder cells in Dulbecco's modified Eagle's medium supplemented with 10% ESC-qualified Fetal Bovine Serum (FBS) (Stem Cell Technologies, Vancouver, Va.), pyruvate (Stem Cell Technologies, stock solution diluted 1:100), 2 mM L-glutamine, nonessential amino acids (Stem Cell Technologies, stock solution diluted 1:100), 100 IU/mL penicillin, 0.1 mg/mL streptomycin, and leukemia inhibitory factor (LIF) (Stem Cell Technologies). To induce differentiation, EBs were formed from undifferentiated mESCs in hanging drops of 400 cells in 20 μL of medium without LIF. After 5 days in suspension, EBs were plated on gelatin-coated dishes and cultured in cardiomyocyte-differentiation medium (Iscove's modified Eagle's medium, supplemented with 15% FBS, 2 mM L-glutamine, 5×10^−5 M β-mercaptoethanol, nonessential aminoacids, 100 IU/mL penicillin, 0.1 mg/mL streptomycin).
Statin Treatment. […] The inhibition of endogenous cholesterol synthesis was the mechanism used for analyzing the effect of endogenous cholesterol depletion on EB differentiation. By days 8 through 12 after plating, spontaneously contracting cell clusters could be observed within the EB outgrowths. Culture media from both simvastatin-treated and untreated cells were changed each day after day 3.
Spontaneous cardiac differentiation of mouse embryonic stem cells (mESCs) was assessed in vitro as the presence of rhythmically beating […] (EB) outgrowth. […] Thereafter, EB outgrowths were counted periodically under the inverted microscope equipped with a digital video camera, to determine whether or not they contained beating foci at different time points (days 3, 5, 7, 10, 12, and 14). At approximately day 7, contracting areas began to appear. […] Concomitant with the increased number of beating EBs, the size of the beating area for simvastatin-treated EBs increased 2-fold (evaluated at day 12) compared to that of untreated control EBs, a significant augmentation (p<0.05) (FIG. 22B).

Clc1ccccc1CNCC1CCC(CNCc2ccccc2Cl)CC1 (stereo not drawn) [AY 9944]
teratogenic effect [1]: holoprosencephalic brain anomalies

O=C(O)c1ccc(CCN2CCN(C/C=C/c3ccc(Cl)cc3)CC2)cc1 [BM 15766]
teratogenic effect [1]: holoprosencephalic brain anomalies

CCCCCCCC[C@H](SCCCCCC)C(=O)Nc1c(SC)cc(C)nc1SC [CP-113,818]
number of TUNEL positive cells [2]: increase in the number of TUNEL positive cells

CC(C)=CCC/C(C)=C/CC/C(C)=C/COP(=O)(O)OP(=O)(O)O [FPP, farnesylpyrophosphate]
effect on nitrite production in cells treated with simvastatin plus IL-1α [3]: did not alter nitrite accumulation

CC(C)=CCC/C(C)=C/CC/C(C)=C/CC/C(C)=C/COP(=O)(O)OP(=O)(O)O [GGPP, geranylgeranylpyrophosphate]
effect on nitrite production in cells treated with simvastatin plus IL-1α [3]: attenuates the simvastatin inhibitory effect; also recorded: reversed the simvastatin-mediated suppression
effect on simvastatin inhibition of cytokine-induced iNOS protein expression ([4]; H9c2): reversed the simvastatin-mediated suppression; also recorded: prevented the inhibitory effect of simvastatin; also recorded: attenuates the simvastatin inhibitory effect

CC(C)C[C@@H](C=O)NC(=O)[C@H](CC(C)C)NC(=O)[C@H](CC(C)C)NC(=O)OCc1ccccc1 [MG132] (Cbz-Leu-Leu-Leu-aldehyde)
EB morphology / cell differentiation [5]: spread out and surrounded by differentiated cells
EB morphology / cell differentiation ([5]; listed as MG-132): helped the cell differentiation

CCN(CC)CCO[C@H]1CC[C@@]2(C)C(=CC[C@@H]3[C@@H]2CC[C@]2(C)C(=O)CC[C@@H]32)C1 [U18666A]
number of TUNEL positive cells with CP-113,818 co-treatment ([2]; U18666A simultaneously with CP-113,818): greatly reduced
number of TUNEL positive cells [2]: no effect on the number of cells bearing this marker of apoptosis

C[C@@H](N)[C@H]1CC[C@H](C(=O)Nc2ccncc2)CC1 [Y-27632]
nuclear NF-κB (p65) translocation in presence of IL-1α [6]: no major effect on the nuclear NF-κB translocation
nitrite production (iNOS activity) in cytokine-treated cells ([3]; IL-1α, Y-27632 10^−6 to 10^−5 mol/L, no simvastatin): enhances NO production; also recorded: dose-dependently increased the iNOS activity
effect on nitrite production in cells treated with simvastatin plus IL-1α [3]: reversal of the statin-induced nitrite reduction; also recorded: reversed the statin inhibitory effect on iNOS activities
effect on simvastatin inhibition of cytokine-induced iNOS protein expression ([4]; H9c2): almost abolished the inhibitory effect of simvastatin
cytokine-induced iNOS protein expression in the absence of simvastatin ([4]; H9c2, cytokine-stimulated, no simvastatin): did not alter cytokine-induced iNOS protein expression

CC(C)c1c(C(=O)Nc2ccccc2)c(-c2ccccc2)c(-c2ccc(F)cc2)n1CC[C@@H](O)C[C@@H](O)CC(=O)O [atorvastatin]
Rho kinase activity [7]: inhibit the Rho kinase activity

CC(C)CCC[C@@H](C)[C@H]1CC[C@H]2[C@@H]3CC=C4C[C@@H](O)CC[C@]4(C)[C@H]3CC[C@]12C [cholesterol]
effect of exogenous cholesterol on the statin effect on iNOS expression [4]: does not prevent the statin effect

CC(C)NCC(O)c1ccc(O)c(O)c1 (stereo not drawn) [isoproterenol]
contraction of beating myocytes ([8]; mESC-derived EBs, isoproterenol 10 ng/ml): marked increased contraction in both frequency and ampltitute

CC(C)NCC(O)COc1cccc2ccccc12 (stereo not drawn) [propanolol]
effect on isoproterenol stimulation of contraction ([8]; propanolol 25 ng/ml with isoproterenol 10 ng/ml): almost abolished the isoproterenol stimulatory effect

CCC(C)(C)C(=O)O[C@H]1C[C@@H](C)C=C2C=C[C@H](C)[C@H](CC[C@@H]3C[C@@H](O)CC(=O)O3)[C@H]21 [simvastatin]
concentration giving the highest levels of phosphorylated IκBα [9]: 10^−7 mol/L
lowest concentration achieving the inhibitory effect on iNOS expression ([4]; H9c2, cytokine-stimulated): 10^−8 mol/L
size of the beating area, increase compared to untreated control EBs [10]: 2 fold
percentage of beating EB outgrowths ([10]; simvastatin, untreated control 18±0.1%): 42±0.1%

CCN(CC)CCOc1ccc(C(O)(Cc2ccc(Cl)cc2)c2ccc(C)cc2)cc1 (stereo not drawn) [triparanol]
teratogenic effect [1]: holoprosencephalic brain anomalies
